Experiment: molar heat capacity at constant volume
Conditions: Fluid (supercritical or subcritical phases), Vacuum adiabatic calorimetry

CC(C)O [propan-2-ol]
Conditions	molar heat capacity at constant volume [J/K/mol]
509.12 K, Mass density=288.99 kg/m3	208.89
509.12 K, Mass density=293.3 kg/m3	205.89
509.12 K, Mass density=324.5 kg/m3	193.27
509.13 K, Mass density=255.8 kg/m3	235.45
509.21 K, Mass density=234.3 kg/m3	205.65
509.21 K, Mass density=266.3 kg/m3	238.7
509.21 K, Mass density=274 kg/m3	233.71
509.21 K, Mass density=281.9 kg/m3	212.8
509.22 K, Mass density=293.3 kg/m3	199.52
509.31 K, Mass density=234.3 kg/m3	202.04
509.31 K, Mass density=255.8 kg/m3	218.33
509.31 K, Mass density=266.3 kg/m3	229.68
509.31 K, Mass density=274 kg/m3	224.45
509.31 K, Mass density=281.9 kg/m3	208.17
509.31 K, Mass density=293.3 kg/m3	198.91
509.35 K, Mass density=329.2 kg/m3	179.56
509.4 K, Mass density=234.3 kg/m3	198.61
509.4 K, Mass density=255.8 kg/m3	215.14
509.4 K, Mass density=274 kg/m3	219.83
509.41 K, Mass density=281.9 kg/m3	208.71
509.41 K, Mass density=293.3 kg/m3	198.91
509.45 K, Mass density=329.2 kg/m3	180.16
509.49 K, Mass density=234.3 kg/m3	198.97
509.49 K, Mass density=255.8 kg/m3	213.4
509.49 K, Mass density=266.3 kg/m3	223.31
509.49 K, Mass density=274 kg/m3	219.83
509.49 K, Mass density=281.9 kg/m3	204.98
509.55 K, Mass density=329.2 kg/m3	178.84
509.59 K, Mass density=234.3 kg/m3	196.21
509.59 K, Mass density=255.8 kg/m3	210.09
509.59 K, Mass density=266.3 kg/m3	219.59
509.59 K, Mass density=274 kg/m3	215.2
509.59 K, Mass density=324.5 kg/m3	183.83
509.64 K, Mass density=329.2 kg/m3	179.98
509.68 K, Mass density=234.3 kg/m3	196.87
509.68 K, Mass density=255.8 kg/m3	209.01
509.68 K, Mass density=266.3 kg/m3	217
509.68 K, Mass density=274 kg/m3	213.04
509.68 K, Mass density=324.5 kg/m3	191.16
509.77 K, Mass density=234.3 kg/m3	196.09
509.77 K, Mass density=255.8 kg/m3	206.37
509.77 K, Mass density=266.3 kg/m3	209.67
509.77 K, Mass density=274 kg/m3	213.04
509.77 K, Mass density=324.5 kg/m3	189.06
509.79 K, Mass density=329.2 kg/m3	177.46
509.86 K, Mass density=234.3 kg/m3	195.79
509.86 K, Mass density=255.8 kg/m3	204.2
509.86 K, Mass density=266.3 kg/m3	209.67
509.86 K, Mass density=274 kg/m3	208.41
509.86 K, Mass density=293.3 kg/m3	194.17
509.87 K, Mass density=324.5 kg/m3	183.23
509.96 K, Mass density=255.8 kg/m3	202.1
509.96 K, Mass density=266.3 kg/m3	209.67
509.96 K, Mass density=274 kg/m3	204.8
509.96 K, Mass density=281.9 kg/m3	202.4
509.96 K, Mass density=293.3 kg/m3	192.18
509.96 K, Mass density=324.5 kg/m3	187.5
509.99 K, Mass density=329.2 kg/m3	177.28
510.05 K, Mass density=255.8 kg/m3	200
510.05 K, Mass density=266.3 kg/m3	209.73
510.05 K, Mass density=274 kg/m3	203.84
510.05 K, Mass density=281.9 kg/m3	206.97
510.05 K, Mass density=293.3 kg/m3	195.37
510.05 K, Mass density=324.5 kg/m3	181.31
510.05 K, Mass density=343.1 kg/m3	174.7
510.14 K, Mass density=255.8 kg/m3	198.91
510.14 K, Mass density=266.3 kg/m3	211.53
510.14 K, Mass density=274 kg/m3	203.36
510.14 K, Mass density=281.9 kg/m3	197.95
510.14 K, Mass density=293.3 kg/m3	191.4
510.14 K, Mass density=324.5 kg/m3	187.92
510.14 K, Mass density=329.2 kg/m3	178.12
510.14 K, Mass density=343.1 kg/m3	178.42
510.23 K, Mass density=329.2 kg/m3	177.94
510.24 K, Mass density=274 kg/m3	204.02
510.24 K, Mass density=281.9 kg/m3	197.95
510.24 K, Mass density=293.3 kg/m3	198.43
510.24 K, Mass density=324.5 kg/m3	181.85
510.24 K, Mass density=343.1 kg/m3	185.87
510.33 K, Mass density=274 kg/m3	202.52
510.33 K, Mass density=281.9 kg/m3	193.45
510.33 K, Mass density=293.3 kg/m3	191.1
510.33 K, Mass density=324.5 kg/m3	181.73
510.33 K, Mass density=329.2 kg/m3	176.68
510.33 K, Mass density=343.1 kg/m3	182.15
510.42 K, Mass density=274 kg/m3	204.68
510.42 K, Mass density=281.9 kg/m3	198.01
510.42 K, Mass density=293.3 kg/m3	187.02
510.42 K, Mass density=324.5 kg/m3	183.05
510.42 K, Mass density=343.1 kg/m3	178.48
510.48 K, Mass density=329.2 kg/m3	178.6
510.51 K, Mass density=281.9 kg/m3	193.69

Source: the NIST ThermoML archive (doi:10.1016/j.jct.2019.03.023)
